This passage reports ID50 results from patent EP0848008A1, “Organotin compounds and compositions containing these compounds” (PHARMACHEMIE B.V., priority 1996, dated 1998).

Structures are written as SMILES.

What all share (assay type): cell-based
The test system of one experiment is M19MEL. Nature of the experiment: In vitro anti-tumour cell growth inhibition (method of Skehan et al.), M19MEL. Particulars: melanoma, amount which inhibits 50% of the cell growth. How it is done: (§1) Compounds 1, 2 and 3 were tested in vitro. together with 2 reference compounds used clinically (carboplatin and cisplatin), against MCF-7 and EVSA-T, two breast cancers, WiDr, a colon cancer, IGROV, an ovarian cancer, M19MEL, a melanoma, A498, a renal cancer, and H226, a non small cell lung cancer. The tests were carried out according to the method of Skehan et al, Journal of the National Cancer Institute, 1990; 82: 1107-1112.

The test system of the next experiment is MCF-7. The experiment in a line: In vitro anti-tumour cell growth inhibition (method of Skehan et al.), MCF-7. Particulars: MCF-7, breast cancer; amount which inhibits 50% of the cell growth. How it is done: as §1
The test system of the next experiment is H226. Nature of the experiment: In vitro anti-tumour cell growth inhibition (method of Skehan et al.), H226. Particulars: H226, non small cell lung cancer; amount which inhibits 50% of the cell growth. As to the method: as §1
The test system of a further experiment is EVSA-T. Nature of the experiment: In vitro anti-tumour cell growth inhibition (method of Skehan et al.), EVSA-T. Particulars: breast cancer, amount which inhibits 50% of the cell growth. As to the method:
as §1

In a further experiment the test system is IGROV. Nature of the experiment: In vitro anti-tumour cell growth inhibition (method of Skehan et al.), IGROV. The conditions noted are these: ovarian cancer, amount which inhibits 50% of the cell growth. As to the method:
as §1

For a further experiment, the system named is WiDr. Nature of the experiment: In vitro anti-tumour cell growth inhibition (method of Skehan et al.), WiDr. The conditions noted are these: colon cancer, amount which inhibits 50% of the cell growth. How it is done: as §1
A further experiment deals with A498. Nature of the experiment: In vitro anti-tumour cell growth inhibition (method of Skehan et al.), A498. The conditions noted are these: A498, renal cancer; amount which inhibits 50% of the cell growth. As to the method: as §1

Take `CC1(C)OC(=O)CC1C(=O)[O-].CC1(C)OC(=O)CC1C(=O)[O-].CCC[CH2][Sn+2][CH2]CCC` (centres unmarked) [Compound 1, Di-n-butyltin diterebate]: the ID50 in the experiment with M19MEL turned out to be 0.061 mg/L; in the experiment with MCF-7, 0.027 mg/L; in the experiment with H226 it was 0.104 mg/L; in the experiment with EVSA-T, 0.025 mg/L; in the experiment with IGROV it was 0.018 mg/L; in the experiment on WiDr, 0.134 mg/L. This compound returned an ID50 with A498 of 0.061 mg/L.

Take `CC1(C)OC(=O)CC1C(=O)[O-].c1cc[c]([Sn+]([c]2ccccc2)[c]2ccccc2)cc1` [Compound 3, triphenyltin terebate]: the ID50 with M19MEL is 0.042 mg/L; in the experiment with MCF-7, 0.017 mg/L; in the experiment with H226 it was 0.039 mg/L; in the experiment with EVSA-T, less than 0.003 mg/L; in the experiment with IGROV, 0.019 mg/L; in the experiment on WiDr, 0.017 mg/L. This compound displayed an ID50 in the experiment with A498 of 0.042 mg/L.

Consider `CC1(C)OC(=O)CC1C(=O)[O-].CCC[CH2][Sn+]([CH2]CCC)[CH2]CCC` [Compound 2, tri-n-butyltin terebate], for which the ID50 with M19MEL is 0.011 mg/L; with MCF-7 it was 0.003 mg/L; in the experiment with H226, 0.008 mg/L; with EVSA-T it was less than 0.003 mg/L; in the experiment with IGROV, 0.004 mg/L; in the experiment with WiDr, 0.011 mg/L. In the experiment on A498, this compound yielded an ID50 of 0.015 mg/L.

Turning to `N.N.O=C([O-])C1(C(=O)[O-])CCC1.[Pt+2]` [Carboplatin, carboplatin, reference compound], the ID50 in the experiment on M19MEL was found to be 5.5 mg/L; in the experiment on MCF-7 it was 10.5 mg/L; with H226 it was 25 mg/L; in the experiment with EVSA-T it was 4.5 mg/L; in the experiment on IGROV, 2.4 mg/L; with WiDr, 3.5 mg/L. In addition, in the experiment on A498, the ID50 turned out to be 18 mg/L.

As to `N.N.[Cl][Pt][Cl]` [Cisplatin, cisplatin, reference compound], the ID50 in the experiment on M19MEL stood at 0.78 mg/L; in the experiment on MCF-7 it was 1.4 mg/L; in the experiment on H226 it was 3.158 mg/L; in the experiment on EVSA-T it was 0.92 mg/L; with IGROV, 0.23 mg/L; with WiDr, 1.55 mg/L. This compound had an ID50 in the experiment with A498 of 1.2 mg/L.
